Read-outs that look alike come from different tables or passages of the source.
What was measured:
[1] = target: T1, P-glycoprotein (Pgp; Abcb1a, MDR3) (Mus musculus, UniProt P21447); assay: intrinsic protein; format: binding
[2] = target: T1, P-glycoprotein (Pgp; Abcb1a, MDR3); assay: intrinsic protein; format: binding; remark: listed apart in the source

T1 sequence (P21447 whole entry): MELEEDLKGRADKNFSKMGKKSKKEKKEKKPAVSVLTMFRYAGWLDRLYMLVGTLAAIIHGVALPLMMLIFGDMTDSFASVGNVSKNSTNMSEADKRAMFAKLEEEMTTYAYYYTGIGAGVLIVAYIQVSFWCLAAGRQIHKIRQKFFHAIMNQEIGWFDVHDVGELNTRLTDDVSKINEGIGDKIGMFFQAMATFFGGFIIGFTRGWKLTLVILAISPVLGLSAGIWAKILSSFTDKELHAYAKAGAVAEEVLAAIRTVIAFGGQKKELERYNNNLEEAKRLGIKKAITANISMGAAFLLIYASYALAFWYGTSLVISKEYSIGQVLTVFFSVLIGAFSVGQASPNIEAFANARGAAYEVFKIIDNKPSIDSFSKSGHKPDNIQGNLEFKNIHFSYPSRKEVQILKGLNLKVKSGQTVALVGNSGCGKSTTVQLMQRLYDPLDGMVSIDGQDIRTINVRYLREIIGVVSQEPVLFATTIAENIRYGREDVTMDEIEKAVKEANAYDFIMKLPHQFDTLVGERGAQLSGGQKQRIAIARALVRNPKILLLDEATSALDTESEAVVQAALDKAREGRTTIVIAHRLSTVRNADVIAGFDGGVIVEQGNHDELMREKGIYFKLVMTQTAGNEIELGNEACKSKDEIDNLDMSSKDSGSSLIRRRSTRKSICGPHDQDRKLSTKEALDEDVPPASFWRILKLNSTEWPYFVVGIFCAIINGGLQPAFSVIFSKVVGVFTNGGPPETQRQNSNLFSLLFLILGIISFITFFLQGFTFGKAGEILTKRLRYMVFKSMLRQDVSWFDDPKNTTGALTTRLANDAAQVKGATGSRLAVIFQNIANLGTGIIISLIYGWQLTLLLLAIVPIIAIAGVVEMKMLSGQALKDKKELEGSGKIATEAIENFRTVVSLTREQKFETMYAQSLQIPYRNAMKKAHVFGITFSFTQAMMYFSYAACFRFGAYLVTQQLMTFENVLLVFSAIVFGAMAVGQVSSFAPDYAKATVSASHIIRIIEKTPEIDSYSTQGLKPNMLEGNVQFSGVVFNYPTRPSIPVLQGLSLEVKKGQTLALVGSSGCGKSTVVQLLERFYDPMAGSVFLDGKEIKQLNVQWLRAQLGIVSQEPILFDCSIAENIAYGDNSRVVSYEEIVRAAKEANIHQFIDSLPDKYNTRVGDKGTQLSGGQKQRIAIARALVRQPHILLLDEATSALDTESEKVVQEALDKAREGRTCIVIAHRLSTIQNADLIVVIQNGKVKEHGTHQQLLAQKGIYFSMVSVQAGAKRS

Structure (SMILES) | Kd [1] [µM] | Kd [2] [µM]
CN1CCC[C@@H]1Cc1c[nH]c2ccc(CCS(=O)(=O)c3ccccc3)cc12 [ETT, eletriptan] | 115 ± 10 | –
CNS(=O)(=O)Cc1ccc2[nH]cc(CCN(C)C)c2c1 [STT, sumatriptan] | – | 92.6 ± 25
